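Cells were grown in 96-well plates and exposed to each compound for 48 hours at five concentrations; endpoints were interpolated linearly between bracketing concentrations, or set to the highest concentration if not reached. The concentration for 50% growth inhibition is given as GI50. The concentration for full growth arrest is given as TGI.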
Legend:
Assay in all cases: NCI tumour cell line growth inhibition, 48 h
[1] = test system: SF-268 CNS
[2] = test system: UO-31 renal
[3] = test system: HOP-92 NSCLC
[4] = test system: KM12 colon
[5] = test system: SF-295 CNS
[6] = test system: SR leukemia
[7] = test system: K-562 leukemia
[8] = test system: CCRF-CEM leukemia
[9] = test system: U251 CNS
[10] = test system: OVCAR-8 ovarian
[11] = test system: NCI-H522 lung
[12] = test system: OVCAR-4 ovarian
[13] = test system: UACC-257 melanoma
[14] = test system: HL-60(TB) leukemia
[15] = test system: RXF 393 renal
[16] = test system: NCI/ADR-RES ovarian
[17] = test system: SF-539 CNS
[18] = test system: PC-3 prostate
[19] = test system: RPMI-8226 leukemia
[20] = test system: A549 NSCLC
[21] = test system: IGROV1 ovarian
[22] = test system: M14 melanoma
[23] = test system: SN12C renal
[24] = test system: SNB-75 CNS
[25] = test system: 786-0 renal
[26] = test system: OVCAR-5 ovarian
[27] = test system: HS 578T breast
[28] = test system: CAKI-1 renal
[29] = test system: HCT-116 colon
[30] = test system: T-47D breast
[31] = test system: DU-145 prostate
[32] = test system: SW-620 colon
[33] = test system: MOLT-4 leukemia
[34] = test system: SNB-19 CNS
[35] = test system: HCC-2998 colon
[36] = test system: MDA-MB-231 breast
[37] = test system: HCT-15 colon
[38] = test system: MCF7 breast
[39] = test system: BT-549 breast
[40] = test system: COLO 205 colon
[41] = test system: SK-MEL-5 melanoma
[42] = test system: MDA-MB-435
[43] = test system: EKVX NSCLC
[44] = test system: NCI-H226 lung
[45] = test system: A498 renal
[46] = test system: TK-10 renal
[47] = test system: HT29 colon
[48] = test system: HOP-62 NSCLC
[49] = test system: MALME-3M melanoma
[50] = test system: SK-MEL-2 melanoma
[51] = test system: ACHN renal
[52] = test system: SK-MEL-28 melanoma
[53] = test system: UACC-62 melanoma
[54] = test system: SK-OV-3 ovarian
[55] = test system: NCI-H23 lung

Cc1ccc(-c2nnc(SCc3ccc(O)c4ncccc34)o2)cc1
GI50 [1]: 0.503 µM | TGI [1]: > 100 µM | GI50 [2]: 0.567 µM | TGI [2]: 3.24 µM | GI50 [3]: 0.435 µM | TGI [3]: 4.08 µM | GI50 [4]: 1.91 µM | TGI [4]: > 100 µM | GI50 [5]: 1.02 µM | TGI [5]: 5.78 µM | GI50 [6]: 0.568 µM | TGI [6]: 42.7 µM | GI50 [7]: 1.14 µM | TGI [7]: 66.3 µM | GI50 [8]: 0.518 µM | TGI [8]: > 100 µM | GI50 [9]: 0.444 µM | TGI [9]: > 100 µM | GI50 [10]: 0.85 µM | TGI [10]: > 100 µM | GI50 [11]: 2.29 µM | TGI [11]: > 100 µM | GI50 [12]: 2.45 µM | TGI [12]: > 100 µM | GI50 [13]: 2.33 µM | TGI [13]: 9.3 µM | GI50 [14]: 0.52 µM | TGI [14]: 10.2 µM | GI50 [15]: 1.12 µM | TGI [15]: 32.2 µM | GI50 [16]: 0.706 µM | TGI [16]: 7.02 µM | GI50 [17]: 0.561 µM | TGI [17]: 5.92 µM | GI50 [18]: 0.457 µM | TGI [18]: > 100 µM | GI50 [19]: 0.648 µM | TGI [19]: > 100 µM | GI50 [20]: 1.95 µM | TGI [20]: > 100 µM | GI50 [21]: 1.55 µM | TGI [21]: 9.86 µM | GI50 [22]: 0.816 µM | TGI [22]: 5.49 µM | GI50 [23]: 0.966 µM | TGI [23]: > 100 µM | GI50 [24]: 0.283 µM | TGI [24]: 3.93 µM | GI50 [25]: 1.61 µM | TGI [25]: 6.81 µM | GI50 [26]: 4.82 µM | TGI [26]: > 100 µM | GI50 [27]: 0.57 µM | TGI [27]: > 100 µM | GI50 [28]: 1.8 µM | TGI [28]: 7.72 µM | GI50 [29]: 0.537 µM | TGI [29]: > 100 µM | GI50 [30]: 1.83 µM | TGI [30]: 7.4 µM | GI50 [31]: 1.46 µM | TGI [31]: > 100 µM | GI50 [32]: 1.06 µM | TGI [32]: > 100 µM | GI50 [33]: 0.877 µM | TGI [33]: > 100 µM | GI50 [34]: 0.513 µM | TGI [34]: 14.3 µM | GI50 [35]: 0.933 µM | TGI [35]: > 100 µM | GI50 [36]: 2.12 µM | TGI [36]: 27.5 µM | GI50 [37]: 0.492 µM | TGI [37]: > 100 µM | GI50 [38]: 0.388 µM | TGI [38]: > 100 µM | GI50 [39]: 1.06 µM | TGI [39]: > 100 µM | GI50 [40]: 8.41 µM | TGI [40]: > 100 µM | GI50 [41]: 0.844 µM | TGI [41]: 6.95 µM | GI50 [42]: 0.5 µM | TGI [42]: > 100 µM | GI50 [43]: 1.73 µM | TGI [43]: 9.86 µM | GI50 [44]: 2.42 µM | TGI [44]: > 100 µM | GI50 [45]: 1.08 µM | TGI [45]: 13.6 µM | GI50 [46]: 1.28 µM | TGI [46]: 9.24 µM | GI50 [47]: 6.43 µM | TGI [47]: > 100 µM | GI50 [48]: 1.06 µM | TGI [48]: 3.83 µM | GI50 [49]: 1.96 µM | TGI [49]: 8.23 µM | GI50 [50]: 2.24 µM | TGI [50]: 39.4 µM | GI50 [51]: 0.649 µM | TGI [51]: 2.32 µM | GI50 [52]: 1.04 µM | TGI [52]: > 100 µM | GI50 [53]: 1.76 µM | TGI [53]: 4.74 µM | GI50 [54]: 1.98 µM | TGI [54]: 6.9 µM | GI50 [55]: 1.47 µM | TGI [55]: 13 µM
